Measurements as given in article PMC12300041, “Tricyclic Isatin Derivatives as Anti-Inflammatory Compounds with High Kinase Binding Affinity” (Molecules, 2025).

What was measured:
Experiment in all cases: KINOMEscan
Type in all cases: binding
[1] = biological target: T1, ABL1 (H396P)-P (Homo sapiens, UniProt P00519, H396P)
T1 construct: purchased Eurofins DiscoverX KINOMEscan
Method in brief: (§1)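 1 h RT binding → immobilized-ligand capture of free kinase → qPCR quantitation. Kd: 12 half-log points, max 33 μM.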

[2] = biological target: T2, ABL1 (T315I)-P (Homo sapiens, UniProt P00519, T315I)
T2 construct: purchased Eurofins DiscoverX KINOMEscan
Method in brief: as §1

[3] = biological target: T3, ABL1 (Y253F)-P (Homo sapiens, UniProt P00519, Y253F)
T3 construct: purchased Eurofins DiscoverX KINOMEscan
Method in brief: as §1

[4] = biological target: T4, AKT2 (Homo sapiens, UniProt P31751)
T4 construct: purchased Eurofins DiscoverX KINOMEscan
Method in brief: as §1

[5] = biological target: T5, BTK (Homo sapiens, UniProt Q06187)
T5 construct: purchased Eurofins DiscoverX KINOMEscan
Method in brief: as §1

[6] = biological target: T6, CAMK1 (Homo sapiens, UniProt Q14012)
T6 construct: purchased Eurofins DiscoverX KINOMEscan
Method in brief: as §1

[7] = biological target: T7, CAMK2G (Homo sapiens, UniProt Q13555)
T7 construct: purchased Eurofins DiscoverX KINOMEscan
Method in brief: as §1

[8] = biological target: T8, CDC2L1 (Homo sapiens, UniProt P21127)
T8 construct: purchased Eurofins DiscoverX KINOMEscan
Method in brief: as §1

[9] = biological target: T9, CDK5 (Homo sapiens, UniProt Q00535)
T9 construct: purchased Eurofins DiscoverX KINOMEscan
Method in brief: as §1

[10] = biological target: T10, CSNK1A1L (Homo sapiens, UniProt Q8N752)
T10 construct: purchased Eurofins DiscoverX KINOMEscan
Method in brief: as §1

[11] = biological target: T11, CSNK1D (Homo sapiens, UniProt P48730)
T11 construct: purchased Eurofins DiscoverX KINOMEscan
Method in brief: as §1

[12] = biological target: T12, DYRK2 (Homo sapiens, UniProt Q92630)
T12 construct: purchased Eurofins DiscoverX KINOMEscan
Method in brief: as §1

[13] = biological target: T13, EPHA3 (Homo sapiens, UniProt P29320)
T13 construct: purchased Eurofins DiscoverX KINOMEscan
Method in brief: as §1

[14] = biological target: T14, ERK5 (Homo sapiens, UniProt Q13164)
T14 construct: purchased Eurofins DiscoverX KINOMEscan
Method in brief: as §1

[15] = biological target: T15, ERK8 (Homo sapiens, UniProt Q8TD08)
T15 construct: purchased Eurofins DiscoverX KINOMEscan
Method in brief: as §1

[16] = biological target: T16, FLT3 (K663Q) (Homo sapiens, UniProt P36888, K663Q)
T16 construct: purchased Eurofins DiscoverX KINOMEscan
Method in brief: as §1

[17] = biological target: T17, FRK (Homo sapiens, UniProt P42685)
T17 construct: purchased Eurofins DiscoverX KINOMEscan
Method in brief: as §1

[18] = biological target: T18, HIPK4 (Homo sapiens, UniProt Q8NE63)
T18 construct: purchased Eurofins DiscoverX KINOMEscan
Method in brief: as §1

[19] = biological target: T19, IGF1R (Homo sapiens, UniProt P08069)
T19 construct: purchased Eurofins DiscoverX KINOMEscan
Method in brief: as §1

[20] = biological target: T20, JAK1 (JH1domain-cat.) (Homo sapiens, UniProt P23458)
T20 construct: JAK1 (JH1domain-cat.); purchased Eurofins DiscoverX KINOMEscan
Method in brief: as §1

[21] = biological target: T21, LTK (Homo sapiens, UniProt P29376)
T21 construct: purchased Eurofins DiscoverX KINOMEscan
Method in brief: as §1

[22] = biological target: T22, MAP4K5 (Homo sapiens, UniProt Q9Y4K4)
T22 construct: purchased Eurofins DiscoverX KINOMEscan
Method in brief: as §1

[23] = biological target: T23, MARK2 (Homo sapiens, UniProt Q7KZI7)
T23 construct: purchased Eurofins DiscoverX KINOMEscan
Method in brief: as §1

[24] = biological target: T24, PAK7 (Homo sapiens, UniProt Q9P286)
T24 construct: purchased Eurofins DiscoverX KINOMEscan
Method in brief: as §1

[25] = biological target: T25, PDGFRA (Homo sapiens, UniProt P16234)
T25 construct: purchased Eurofins DiscoverX KINOMEscan
Method in brief: as §1

[26] = biological target: T26, PFTAIRE2 (Homo sapiens, UniProt Q96Q40)
T26 construct: purchased Eurofins DiscoverX KINOMEscan
Method in brief: as §1

[27] = biological target: T27, PIM3 (Homo sapiens, UniProt Q86V86)
T27 construct: purchased Eurofins DiscoverX KINOMEscan
Method in brief: as §1

[28] = biological target: T28, PIP5K2B (Homo sapiens, UniProt P78356)
T28 construct: purchased Eurofins DiscoverX KINOMEscan
Method in brief: as §1

[29] = biological target: T29, PLK1 (Homo sapiens, UniProt P53350)
T29 construct: purchased Eurofins DiscoverX KINOMEscan
Method in brief: as §1

[30] = biological target: T30, PLK3 (Homo sapiens, UniProt Q9H4B4)
T30 construct: purchased Eurofins DiscoverX KINOMEscan
Method in brief: as §1

[31] = biological target: T31, PRKCQ (Homo sapiens, UniProt Q04759)
T31 construct: purchased Eurofins DiscoverX KINOMEscan
Method in brief: as §1

[32] = biological target: T32, PRKX (Homo sapiens, UniProt P51817)
T32 construct: purchased Eurofins DiscoverX KINOMEscan
Method in brief: as §1

[33] = biological target: T33, RIOK2 (Homo sapiens, UniProt Q9BVS4)
T33 construct: purchased Eurofins DiscoverX KINOMEscan
Method in brief: as §1

[34] = biological target: T34, RSK3 (Kin. Dom.2-C-term.) (Homo sapiens, UniProt Q15349)
T34 construct: RSK3 (Kin. Dom.2-C-term.); purchased Eurofins DiscoverX KINOMEscan
Method in brief: as §1

[35] = biological target: T35, SRPK3 (Homo sapiens, UniProt Q9UPE1)
T35 construct: purchased Eurofins DiscoverX KINOMEscan
Method in brief: as §1

[36] = biological target: T36, TAOK2 (Homo sapiens, UniProt Q9UL54)
T36 construct: purchased Eurofins DiscoverX KINOMEscan
Method in brief: as §1

[37] = biological target: T37, TBK1 (Homo sapiens, UniProt Q9UHD2)
T37 construct: purchased Eurofins DiscoverX KINOMEscan
Method in brief: as §1

[38] = biological target: T38, TESK1 (Homo sapiens, UniProt Q15569)
T38 construct: purchased Eurofins DiscoverX KINOMEscan
Method in brief: as §1

[39] = biological target: T39, p38-σ (Homo sapiens, UniProt O15264)
T39 construct: purchased Eurofins DiscoverX KINOMEscan
Method in brief: as §1

T32 sequence (P51817 whole entry): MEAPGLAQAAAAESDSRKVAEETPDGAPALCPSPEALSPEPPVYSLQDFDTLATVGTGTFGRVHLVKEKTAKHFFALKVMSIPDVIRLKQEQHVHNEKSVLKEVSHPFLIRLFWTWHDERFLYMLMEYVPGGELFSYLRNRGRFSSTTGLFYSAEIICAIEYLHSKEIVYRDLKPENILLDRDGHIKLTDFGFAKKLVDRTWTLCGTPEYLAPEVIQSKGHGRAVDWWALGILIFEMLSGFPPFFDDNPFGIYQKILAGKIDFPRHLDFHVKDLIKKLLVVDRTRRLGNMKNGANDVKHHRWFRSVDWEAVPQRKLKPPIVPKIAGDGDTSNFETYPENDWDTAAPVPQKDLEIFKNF
T34 sequence (Q15349 389-733 limits assumed): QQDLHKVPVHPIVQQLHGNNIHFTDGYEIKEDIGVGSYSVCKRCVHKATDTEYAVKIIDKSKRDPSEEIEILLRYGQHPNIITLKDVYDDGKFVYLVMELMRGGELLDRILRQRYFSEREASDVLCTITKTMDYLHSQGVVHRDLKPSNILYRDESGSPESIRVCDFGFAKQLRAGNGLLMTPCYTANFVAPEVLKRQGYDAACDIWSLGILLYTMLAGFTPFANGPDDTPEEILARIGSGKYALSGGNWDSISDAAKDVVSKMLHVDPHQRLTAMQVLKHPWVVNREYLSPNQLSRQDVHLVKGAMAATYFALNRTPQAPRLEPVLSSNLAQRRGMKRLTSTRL
T33 sequence (Q9BVS4 whole entry): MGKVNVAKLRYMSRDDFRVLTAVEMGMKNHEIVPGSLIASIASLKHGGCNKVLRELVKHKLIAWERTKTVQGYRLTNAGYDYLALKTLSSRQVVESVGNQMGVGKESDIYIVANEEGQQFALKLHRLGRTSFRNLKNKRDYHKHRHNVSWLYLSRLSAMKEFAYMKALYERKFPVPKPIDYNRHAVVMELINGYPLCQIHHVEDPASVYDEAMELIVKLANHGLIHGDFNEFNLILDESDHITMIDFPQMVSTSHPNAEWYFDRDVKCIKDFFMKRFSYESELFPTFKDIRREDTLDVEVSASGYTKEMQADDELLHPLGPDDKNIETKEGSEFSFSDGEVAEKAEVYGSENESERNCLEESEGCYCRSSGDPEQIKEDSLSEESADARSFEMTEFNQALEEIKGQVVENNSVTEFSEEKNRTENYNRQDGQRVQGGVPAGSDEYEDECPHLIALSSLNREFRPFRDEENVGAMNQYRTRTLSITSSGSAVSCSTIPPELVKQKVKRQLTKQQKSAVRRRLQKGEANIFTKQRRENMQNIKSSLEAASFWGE
T23 sequence (Q7KZI7 whole entry): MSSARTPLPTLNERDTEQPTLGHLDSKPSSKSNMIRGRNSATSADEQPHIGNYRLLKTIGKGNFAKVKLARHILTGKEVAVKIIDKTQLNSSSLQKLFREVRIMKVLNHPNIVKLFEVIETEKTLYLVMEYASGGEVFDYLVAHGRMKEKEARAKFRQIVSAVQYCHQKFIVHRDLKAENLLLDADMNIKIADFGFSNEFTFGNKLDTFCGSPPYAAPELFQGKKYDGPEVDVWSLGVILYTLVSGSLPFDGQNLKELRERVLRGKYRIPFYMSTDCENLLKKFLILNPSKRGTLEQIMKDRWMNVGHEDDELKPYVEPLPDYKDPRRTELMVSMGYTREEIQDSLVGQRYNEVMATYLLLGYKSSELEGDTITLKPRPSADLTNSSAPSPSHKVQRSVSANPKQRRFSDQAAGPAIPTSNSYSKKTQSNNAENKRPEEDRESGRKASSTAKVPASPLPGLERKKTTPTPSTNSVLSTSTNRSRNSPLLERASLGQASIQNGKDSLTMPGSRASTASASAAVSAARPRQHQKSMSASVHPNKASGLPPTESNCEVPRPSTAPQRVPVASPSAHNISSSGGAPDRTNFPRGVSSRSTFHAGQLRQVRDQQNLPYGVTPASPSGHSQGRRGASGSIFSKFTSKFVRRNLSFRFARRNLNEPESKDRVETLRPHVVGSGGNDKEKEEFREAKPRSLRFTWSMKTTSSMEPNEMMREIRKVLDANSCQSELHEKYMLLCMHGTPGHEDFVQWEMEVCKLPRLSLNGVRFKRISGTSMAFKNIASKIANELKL
T6 sequence (Q14012 whole entry): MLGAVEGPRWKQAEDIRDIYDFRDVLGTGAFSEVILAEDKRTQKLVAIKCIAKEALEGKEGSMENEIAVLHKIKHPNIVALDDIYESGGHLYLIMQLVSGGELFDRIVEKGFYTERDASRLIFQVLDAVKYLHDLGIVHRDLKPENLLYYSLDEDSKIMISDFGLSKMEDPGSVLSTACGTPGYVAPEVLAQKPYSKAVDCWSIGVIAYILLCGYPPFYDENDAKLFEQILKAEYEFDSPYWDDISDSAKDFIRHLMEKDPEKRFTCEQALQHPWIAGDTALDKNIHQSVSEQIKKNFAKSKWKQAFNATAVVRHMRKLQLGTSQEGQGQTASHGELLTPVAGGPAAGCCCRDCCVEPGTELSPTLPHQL
T35 sequence (Q9UPE1 whole entry): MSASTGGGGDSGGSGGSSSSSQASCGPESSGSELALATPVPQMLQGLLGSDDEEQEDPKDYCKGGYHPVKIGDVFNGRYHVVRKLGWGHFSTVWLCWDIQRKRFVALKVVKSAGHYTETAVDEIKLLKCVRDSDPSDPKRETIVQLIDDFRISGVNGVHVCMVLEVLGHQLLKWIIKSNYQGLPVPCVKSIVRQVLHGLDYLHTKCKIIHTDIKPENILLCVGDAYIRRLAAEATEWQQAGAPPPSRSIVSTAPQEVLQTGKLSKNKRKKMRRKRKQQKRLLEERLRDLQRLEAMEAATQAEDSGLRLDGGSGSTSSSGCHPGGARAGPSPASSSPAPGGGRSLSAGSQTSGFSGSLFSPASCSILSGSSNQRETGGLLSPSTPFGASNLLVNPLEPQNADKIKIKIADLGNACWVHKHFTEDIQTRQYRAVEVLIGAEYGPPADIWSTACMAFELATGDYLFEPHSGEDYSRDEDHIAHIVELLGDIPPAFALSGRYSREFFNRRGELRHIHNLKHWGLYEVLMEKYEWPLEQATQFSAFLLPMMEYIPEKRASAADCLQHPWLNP
T9 sequence (Q00535 whole entry): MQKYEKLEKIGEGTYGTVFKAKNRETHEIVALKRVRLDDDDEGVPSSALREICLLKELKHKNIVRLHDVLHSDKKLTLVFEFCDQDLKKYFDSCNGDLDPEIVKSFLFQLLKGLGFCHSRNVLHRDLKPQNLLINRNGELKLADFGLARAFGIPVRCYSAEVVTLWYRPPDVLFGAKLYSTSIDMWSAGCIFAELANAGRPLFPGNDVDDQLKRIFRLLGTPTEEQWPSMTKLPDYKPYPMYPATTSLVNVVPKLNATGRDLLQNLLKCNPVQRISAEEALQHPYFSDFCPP
T22 sequence (Q9Y4K4 whole entry): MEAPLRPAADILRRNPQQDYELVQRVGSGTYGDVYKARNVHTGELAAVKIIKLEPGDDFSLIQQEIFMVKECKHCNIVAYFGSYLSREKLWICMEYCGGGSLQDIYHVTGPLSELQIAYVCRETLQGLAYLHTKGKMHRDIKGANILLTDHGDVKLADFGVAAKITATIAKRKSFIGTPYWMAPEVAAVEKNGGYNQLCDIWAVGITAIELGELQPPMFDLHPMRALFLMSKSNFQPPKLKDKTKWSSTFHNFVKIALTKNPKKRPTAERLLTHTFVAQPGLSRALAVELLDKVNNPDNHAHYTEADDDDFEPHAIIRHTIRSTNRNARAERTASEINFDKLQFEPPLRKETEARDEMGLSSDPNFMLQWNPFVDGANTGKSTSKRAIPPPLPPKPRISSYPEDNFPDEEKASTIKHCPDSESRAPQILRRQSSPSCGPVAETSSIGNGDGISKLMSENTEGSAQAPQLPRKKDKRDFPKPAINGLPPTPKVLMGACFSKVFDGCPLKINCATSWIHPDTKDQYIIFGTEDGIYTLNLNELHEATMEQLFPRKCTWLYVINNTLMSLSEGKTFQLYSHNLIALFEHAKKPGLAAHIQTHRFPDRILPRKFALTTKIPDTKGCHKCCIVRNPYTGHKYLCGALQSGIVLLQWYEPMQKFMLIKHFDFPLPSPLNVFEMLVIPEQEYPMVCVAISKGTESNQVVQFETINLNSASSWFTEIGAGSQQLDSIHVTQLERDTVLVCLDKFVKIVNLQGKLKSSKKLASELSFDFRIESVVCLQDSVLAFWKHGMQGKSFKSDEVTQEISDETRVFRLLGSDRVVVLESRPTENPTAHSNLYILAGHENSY
T15 sequence (Q8TD08 whole entry): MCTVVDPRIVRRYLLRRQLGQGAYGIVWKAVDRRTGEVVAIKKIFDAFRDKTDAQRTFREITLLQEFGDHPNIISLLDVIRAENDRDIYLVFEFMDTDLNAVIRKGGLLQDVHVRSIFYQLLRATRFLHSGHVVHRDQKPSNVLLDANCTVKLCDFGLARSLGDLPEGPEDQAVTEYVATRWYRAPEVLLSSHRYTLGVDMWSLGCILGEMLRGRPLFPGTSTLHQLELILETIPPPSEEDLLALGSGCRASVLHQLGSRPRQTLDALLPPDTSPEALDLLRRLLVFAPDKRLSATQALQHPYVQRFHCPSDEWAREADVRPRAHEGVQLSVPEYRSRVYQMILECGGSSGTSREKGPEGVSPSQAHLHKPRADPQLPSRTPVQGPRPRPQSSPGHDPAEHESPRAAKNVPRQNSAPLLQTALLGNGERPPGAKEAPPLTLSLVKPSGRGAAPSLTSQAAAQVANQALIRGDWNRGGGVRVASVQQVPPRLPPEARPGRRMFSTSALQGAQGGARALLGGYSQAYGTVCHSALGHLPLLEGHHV
T20 sequence (P23458 866-1154 limits assumed): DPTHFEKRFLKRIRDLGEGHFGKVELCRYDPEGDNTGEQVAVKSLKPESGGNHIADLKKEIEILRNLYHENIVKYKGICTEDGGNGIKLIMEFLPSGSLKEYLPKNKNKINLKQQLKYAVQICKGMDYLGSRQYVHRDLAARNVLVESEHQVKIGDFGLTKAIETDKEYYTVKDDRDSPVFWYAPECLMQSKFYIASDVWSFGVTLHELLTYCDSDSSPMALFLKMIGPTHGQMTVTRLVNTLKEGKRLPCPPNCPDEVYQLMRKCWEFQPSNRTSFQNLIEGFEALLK

Work on `O=C1Nc2c(cc([N+](=O)[O-])c3c2CCCC3)C1=NO` [Compound 5d, 3-(Hydroxyimino)-5-nitro-1,3,6,7,8,9-hexahydro-2H-benzo[g]indol-2-one] yielded an inhibition at 10 µM [1] of 41%, an inhibition at 10 µM [2] of 17% and an inhibition at 10 µM [3] of 41%. For the same compound, the inhibition at 10 µM [4] was 0%, the inhibition at 10 µM [5] was 39% and the inhibition at 10 µM [6] was 38%. The inhibition at 10 µM [7] was 25%, the inhibition at 10 µM [8] was 0% and the inhibition at 10 µM [9] was 1%. The inhibition at 10 µM [10] was 63%, the inhibition at 10 µM [11] was 79% and the inhibition at 10 µM [12] was 81%. The inhibition at 10 µM [13] was 45%, the inhibition at 10 µM [14] was 0% and the inhibition at 10 µM [15] was 50%. It also gave an inhibition at 10 µM [16] of 5%, an inhibition at 10 µM [17] of 0% and an inhibition at 10 µM [18] of 63%. For the same compound, the inhibition at 10 µM [19] was 0%, the inhibition at 10 µM [20] was 0% and the inhibition at 10 µM [21] was 64%. It also gave an inhibition at 10 µM [22] of 12%, an inhibition at 10 µM [23] of 36% and an inhibition at 10 µM [24] of 55%. For the same compound, the inhibition at 10 µM [25] was 0%, the inhibition at 10 µM [26] was 6% and the inhibition at 10 µM [27] was 95.8%. For the same compound, the inhibition at 10 µM [28] was 64%, the inhibition at 10 µM [29] was 71% and the inhibition at 10 µM [30] was 51%. For the same compound, the inhibition at 10 µM [31] was 7%, the inhibition at 10 µM [32] was 0% and the inhibition at 10 µM [33] was 80%. For the same compound, the inhibition at 10 µM [34] was 74%, the inhibition at 10 µM [35] was 66% and the inhibition at 10 µM [36] was 37%. It also gave an inhibition at 10 µM [37] of 46%, an inhibition at 10 µM [38] of 9% and an inhibition at 10 µM [39] of 7%.
